Data from a melting point compilation (Tetko et al.; mined from patent text by program, amines drawn as free bases though some values may be those of a salt).

`CC(C)(C)OC(=O)N1CCC(C(=O)Nc2ccccc2Oc2ccc(Cl)cc2)CC1` gave a melting point of 97 to 99 °C.
With `Cc1cc(C)n(-c2nc(-c3ccc(Cl)cc3)c(CCC(=O)O)o2)n1` the melting point was 201 to 202 °C.
`CS(=O)C1CC(=O)N1CC(=O)NCc1ccccc1` (single isomer, unassigned; (-)) showed a melting point of 138 to 140 °C.
For `CCCc1c(OCCCSc2cccc(CC(=O)OC)c2F)ccc(C(C)=O)c1O`, the melting point was 63 to 65 °C.
Work on `CCCCCCCCCc1cc(C(=O)O)n[nH]1` yielded a melting point of 147 to 149 °C.
`Cn1c(=O)n(Cc2ccc3c(c2)OCO3)c(=O)c2cc(C(=O)NCc3ccc4c(c3)OCO4)ccc21` showed a melting point of 198 °C.
For `NCc1ccc(CO)cc1`, the melting point was 102 to 123 °C.
Work on `O=C(NCCCCCC1CCSS1)c1cccnc1` (centres undefined) yielded a melting point of 41 to 44 °C.
With `O=c1nc(-c2cccc(CSc3ccncc3)n2)sc2ccccc12` the melting point was 182 °C.
With `C[Si](C)(C)N1CCN(N=Cc2ccccc2)C(=O)C1=O` the melting point was 190 to 191 °C.
Work on `CCn1nnc(NC(=O)C2c3ccccc3COc3ccccc32)n1` (racemic) yielded a melting point of 158 to 159 °C.
Work on `CN(Cc1ccccc1)Cc1ccc(N)cc1` yielded a melting point of 48 to 50 °C.
In the case of `CC(=O)OC1CSC(Oc2cnccc2-c2ccncc2)C(OC(C)=O)C1OC(C)=O` (centres undefined), the melting point is reported as 185 °C.
Compound `COc1ccc(NCCCCCNC(C)=O)c2c1C(=O)c1ccccc1C2=O` has a melting point of 145 to 147 °C.
`N#Cc1ccc2c(c1)c(C1CCC(=O)CC1)cn2Cc1ccccc1` gave a melting point of 115 to 126 °C.
For `CC1(C)COc2ccc(Cl)cc21`, the melting point was 64 to 66 °C.
Work on `Cc1nc2c3c(ccn2c1C)C(O)C(O)C(c1ccsc1)N3` (centres undefined) yielded a melting point of 134 to 138 °C.
In the case of `CC1(C)COC(c2c(F)cccc2C2(C)CCCC2)=N1`, the melting point is reported as 116 to 117 °C.
Compound `NS(=O)(=O)c1ccc(-n2nc(C(F)(F)F)cc2-c2ccc(-c3cscn3)cc2)cc1` has a melting point of 188 to 190 °C.
`CCOC(=O)C1(O)C(=O)Nc2c(OC)cc(CCNC(=O)C(F)(F)F)cc21` (centres undefined) showed a melting point of 115 to 117 °C.
`CCN1CCc2ccc(Nc3ncc(Cl)c(NCC(C)(C)NS(C)(=O)=O)n3)cc2CC1` gave a melting point of 118 to 121 °C.
Compound `CN(C)CCCCCOc1ccc2oc(-c3ccccc3)cc(=O)c2c1` has a melting point of 82 to 83 °C.
In the case of `CNC(=O)[C@@H]1C[C@H](OC)CN1S(=O)(=O)c1ccc(Cl)c(COc2cccc3c(-n4ccnc4)cc(C)nc23)c1Cl`, the melting point is reported as 64 °C.
For `Cc1nc(N2CCC(c3ccc(F)cc3)CC2)c([N+](=O)[O-])c(=O)n1CCCCO`, the melting point was 154 to 156 °C.
For `O=C(Cl)c1csc(=O)[nH]1`, the melting point was 184 °C.
Compound `c1ccc(COc2c(-c3ccccc3)n[nH]c2-c2ccccc2)cc1` has a melting point of 152 °C.
Compound `CCc1ccccc1-c1cccc(Br)c1OCc1cccc(C(=O)NCCO)c1` has a melting point of 82.2 to 84.2 °C.
With `CC(C)n1cc(-c2nc(C(N)=O)c(N)nc2-c2ccc(Cl)cc2)ccc1=O` the melting point was 246 °C.
With `CN(C)Cc1ccc(-c2cc3ncc(C#N)c(Cl)c3s2)cc1` the melting point was 166 to 168 °C.
Compound `CC(=NOCc1ccc(Cl)s1)C1=C(O)CC(C2CCCSC2)CC1=O` (centres undefined) has a melting point of 154 to 155 °C.
`Cc1cc(Cl)c(-n2nc(C#N)c(-c3ccco3)c2N)c(Cl)c1` gave a melting point of 192 °C.
With `NNc1cc2c(nn1)CCN(C(=O)c1ccccc1F)C2` the melting point was 210 to 213 °C.
With `CC(C#N)(COc1ccccc1C(F)(F)F)NC(=O)c1ccc(C(=O)c2ccccc2)cc1` (centres undefined) the melting point was 121 to 123 °C.
For `CC(C)N1C(=O)C(NC(=O)Cc2cc(Cl)cc(Cl)c2)C(=O)N(CC(F)(F)F)c2ccccc21` (centres undefined), the melting point was 185 to 186 °C.
With `Cc1sc2c(Br)c3ccccc3c(-c3cc(Br)c(O)c([N+](=O)[O-])c3)c2c1C` the melting point was 129 to 130 °C.
Work on `[N-]=[N+]=Nc1cccc2c1C(=O)N(CCCCCC(=O)Cl)C2=O` yielded a melting point of 68 to 69 °C.
In the case of `CC1(C2=C(O)C(=O)c3ccccc3C2=O)CCCC1`, the melting point is reported as 116 to 118 °C.
`Nc1cccc(N2C(=O)c3ccc(N)cc3C2=O)c1` showed a melting point of 228 to 231 °C.
For `O=C(O)c1cccnc1NCc1ccccc1`, the melting point was 148 °C.
Work on `CCNCC1CCN(c2c(F)cc3c(=O)c(C(=O)O)cn(NC)c3c2F)C1` (centres undefined) yielded a melting point of 222 to 224 °C.
Work on `Brc1cn2ccsc2n1` yielded a melting point of 96 to 98 °C.
In the case of `CCC/C(=C\C#N)c1ccc2c(c1)C(CC)(CC)OC(=O)N2`, the melting point is reported as 121 to 124 °C.
`CC(=O)c1c[nH]c2nccc(-c3ccccc3)c12` showed a melting point of over 210 °C.
With `NC(=O)NN=Cc1ccc(OC2CCOCC2)cc1` the melting point was 208 to 209 °C.
`OC(Cn1cncn1)c1ccc(-c2ccc(Cl)cc2)cc1` (centres undefined) showed a melting point of 199 °C.
`CCOC(=O)c1cn(C(=O)c2ccccc2)c2sc(-c3ccc(OC)cc3)c(CBr)c2c1=O` gave a melting point of 124 to 126 °C.
With `COc1nc2ncccc2c2nc(S(=O)(=O)Cl)nn12` the melting point was 172 to 174 °C.
Work on `O=[N+]([O-])c1ccc2c(c1)CC(Cl)c1ccccc1S2` (centres undefined) yielded a melting point of 74 to 77 °C.
`CN1C(=O)C(C2OC(=O)c3ccccc32)N(C)C(=O)C1Cc1ccccc1` (centres undefined) showed a melting point of 225 °C.
For `C[C@H](OC(=O)c1ccccc1)[C@@H](O)[C@@H](CO)OCc1ccccc1Cl`, the melting point was 80 to 83 °C.
`CC(=O)N(c1cc(N)c(F)cc1Cl)S(=O)(=O)CCl` gave a melting point of 176 to 180 °C.
Work on `CCCCCCCCCCCCCCNC(=S)NC(=O)c1ccc(C#N)cc1` yielded a melting point of 78 to 80 °C.
Work on `CN1C(=S)C(NC(=O)CCC2CCCCC2)N=C(c2ccccc2)c2ccccc21` (centres undefined) yielded a melting point of 219 to 221 °C.
With `O=C(O)Cc1ccc(C2CCCC(=O)C2)cc1` (centres undefined) the melting point was 96 °C.
Work on `CCCc1cc2c(c(Br)c1O)CCO2` yielded a melting point of 42 to 43 °C.
For `O=C(O)c1ccc(NCC=Cc2ccccc2)cc1`, the melting point was 200 to 202 °C.
For `N#Cc1c(Cl)c(Cl)c(NCCN)c(Cl)c1Cl`, the melting point was 140 to 144 °C.
`CC(=O)c1cnc(Cl)c(Cl)c1` showed a melting point of 80 °C.
In the case of `COc1cc(C(=O)O)c(-c2c(C(=O)O)cc(OC)c3c2OCO3)c(OC)c1OC`, the melting point is reported as 258 to 259 °C.
Work on `COC(=O)c1ccc(Nc2ccc(C(=O)OC)cc2)cc1` yielded a melting point of 174 to 175 °C.
In the case of `N#Cc1ccc(Oc2cncc3sc(C(N)=O)cc23)cc1`, the melting point is reported as 255 to 257 °C.
In the case of `COc1ccc2c(c1)C(c1ccccc1)N(S(C)(=O)=O)N=C2Cc1c(Cl)cncc1Cl` (centres undefined), the melting point is reported as 223 to 224 °C.
`Cn1nnnc1SCCCn1cc(C2=C(c3cn(C)c4ccccc34)C(=O)NC2=O)c2ccccc21` showed a melting point of 95 to 97 °C.
For `CCCCS(=O)(=O)ON=C(C#N)c1ccc(OC)cc1`, the melting point was 71 °C.
With `CCOC(=O)c1c(O)c2cc(C)ccc2n(C)c1=O` the melting point was 132 °C.
With `Cc1oc(-c2ccccc2)nc1COc1cccc(COc2cc(Cl)ccc2C(=O)O)c1` the melting point was 168 °C.
Compound `O=C=Nc1ccc(F)cc1` has a melting point of 93 to 94 °C.
For `CC(C)(C)OC(=O)N1CCC(S(=O)(=O)Cl)CC1`, the melting point was 84.6 to 85.7 °C.
With `C=CCn1c(NCCOc2ccccc2)nc(N2CCc3ccccc3CC2)c(C#N)c1=O` the melting point was 157 to 160 °C.
`Cc1cc(C)c(N)cc1N` gave a melting point of 170 to 172 °C.
Compound `CN1CCN(c2cccc3c2C[C@H](NC(=O)c2ccc(-c4ccccc4)cc2)CC3)CC1` has a melting point of 232 to 233 °C.
Compound `CCOC(=O)C(CC)Sc1nc2c(c(=O)[nH]c(=O)n2C)n1Cc1cccc(N)c1` (centres undefined) has a melting point of 107 °C.
`CC(=O)c1cc(N2CCOCC2)ccc1NC(=O)c1cccc(OCc2ccccc2)c1` showed a melting point of 140 to 142 °C.
In the case of `CC(C)CC(=O)OC1(C(=O)CO)CCC2C3CC(C)C4=CC(=O)C=CC4(C)C3C(O)CC21C` (centres undefined), the melting point is reported as 164 °C.
With `COC(=O)[C@@H]1CSCN1C(=O)/C=C\Sc1ccccc1` the melting point was 126 to 128 °C.
Compound `C=CN(C(=O)CCl)c1c(CC)cccc1CC` has a melting point of 45 to 47 °C.
For `O=Cc1c2ccccc2c(C=O)c2ccccc12`, the melting point was 224 to 245 °C.
For `CC(=O)N(Cc1nc(-c2ccccc2)c(-c2ccccc2)o1)c1cccc(OCC(=O)O)c1`, the melting point was 75 to 80 °C.
With `COC(=O)/C=C/c1ccc(OC2Cc3ccccc3C2)cc1` the melting point was 115 to 116 °C.
Compound `CC(C)Nc1nc(-c2nc[nH]n2)cc(Cl)c1-c1c(F)cccc1Cl` has a melting point of 152 °C.
`O=c1[nH]c(=O)c2nc3ccccc3nc2[nH]1` gave a melting point of 300 °C.
`O=C(O)C(=O)c1ccc(OCCOc2cc3ccccc3cc2OCCO)cc1` showed a melting point of 176 to 177 °C.
`CC(=O)Oc1c(C)c(C=O)nc2ccccc12` showed a melting point of 132 to 133 °C.
`NC(=O)C(F)(F)C(F)(F)C(=O)C(F)(F)F` gave a melting point of 82 to 87 °C.
With `COc1ccc(/C=C(\C)c2ccc3c(c2)C(C)(C)CCC3(C)C)cc1` the melting point was 108 to 110 °C.
For `Cc1ccncc1Cn1nnnc1-c1ccc(Cl)c(Cl)c1`, the melting point was 167 to 169 °C.
Work on `COC(=O)c1ccc2cc(CCC=O)oc2c1` yielded a melting point of 57 to 58 °C.
For `O=C1OCc2c1cc1ccc3c(c1c2-c1ccc(OC(F)(F)F)cc1)OCO3`, the melting point was 222 to 225 °C.
With `Cc1cc(C2CCN(S(=O)(=O)C3(C(=O)NO)CCOCC3)CC2)ccc1-c1cccc(OCCO)n1` the melting point was 193 to 194 °C.
Compound `CCCc1c(C(C)C)nc(C(C)C)c(C(C)O)c1-c1ccc(F)cc1` (centres undefined) has a melting point of 103 to 104 °C.
With `Cc1nccc2c3ccc(O)cc3n(Cc3ccccc3)c12` the melting point was 234 °C.
`CCOC(=O)C1Cc2c([nH]c3ccccc23)CN1C(=S)SCc1ccc(Cl)cc1` (centres undefined) gave a melting point of 195 to 197 °C.
In the case of `COc1c(N2CCC(N)C(C)(C)C2)c(F)c(N)c2c(=O)c(C(=O)O)cn(C3CC3)c12` (centres undefined), the melting point is reported as 205 °C.
For `CC(C)CCN1CCC(CNC(=O)c2cc(Cl)c(N)[nH]c2=O)CC1`, the melting point was 131 to 135 °C.
Work on `COC(=O)Cc1ccc(OCCCOc2cc3c(cc2O)CCO3)cc1` yielded a melting point of 108 to 110 °C.
Work on `O=C(c1ccccc1)c1cc(-c2ccc(Cl)cc2)c(N2CCOCC2)s1` yielded a melting point of 180 °C.
Compound `COC(=O)c1[nH]c2ccccc2c1Oc1ccccc1N` has a melting point of 183 to 184 °C.
`COc1ccc2cc([C@H](C)C(=O)OC[C@](C)(O)CO)ccc2c1` gave a melting point of 65 to 66 °C.
`O=C(c1cccs1)c1cccc2cc[nH]c12` gave a melting point of 129 to 130 °C.
For `CSC1=NC=C(I)C(c2nnn(C)n2)(C(F)(F)F)N1` (centres undefined), the melting point was 113 to 118 °C.
Work on `Cc1cc(NC(=O)c2ccc(F)cc2)c(C)cc1N` yielded a melting point of 174 to 176 °C.
In the case of `CN(Cc1cc(C(F)(F)F)cc(C(F)(F)F)c1)C(=O)c1c(-c2ccc(F)cc2)c2ccncc2c(=O)n1C`, the melting point is reported as 179 to 181 °C.
With `Cc1cccc(-c2n[nH]cc2-c2ccnc(-c3ccc(C(=O)NC4CCOCC4)cc3)c2)n1` the melting point was 148 °C.
`CCn1nnn(-c2cc(OCOC)c(Cl)cc2Cl)c1=O` gave a melting point of 112 to 113 °C.
